# Assay results published in patent publication US10306895B2, “Plant defense signaling peptides and applications thereof” (Academia Sinica, priority 2014, dated 2019).
# Ends that are not written are not given here.
# Tests used:
# Pst DC3000 [1] = conditions: seedlings treated with 50 mM NaCl for 24 hours, with or without 250 nM AtCAPE1 for 6 hours
# Method: 5 days Arabidopsis seedlings treated with 50 mM NaCl for 24 hours and following the treatment of with or without 250 nM AtCAPE1 for 6 hours. The infection symptoms were observed 4 days after Pst DC3000 inoculation. The bacterial numbers were calculated 7 days after inoculation and represented as log colony-forming units (Log CFU) per g leaf tissue. Data represent the means and SD of three biological samples.
# Pst DC3000 or hrcC^− were grown in water- or peptide-treated plants for several days to observe the symptoms and then the bacteria were collected from the leaves and evaluated by bacterial titers according to a method outlined previously (Zimmerli et al., 2000).
# [2] = tested on: JA and JA-Ile accumulation; experiment: Jasmonate hormone quantitation by LC-MS/MS in excised tomato plants; assay type: in vivo, Solanum lycopersicum (tomato); conditions: 365 nM peptide in buffer through the cut stem of excised plants, 2 and 4 hours
# Method: The plants treated with 10 mM phosphate buffer (buffer), 365 nM systemin (Sys) or 365 nM CAPE1 in buffer through the cut stem for 2 and 4 hours (n=3). The quantity of JA and JA-Ile were quantified by LC-SRM-MS and calculated by the abundance of spiked standard H2JA. Data represent the means and SD of three independent biological replicates.
# To compare the jasmonates induced by the peptides, the excised tomato plants were treated with 10 mM phosphate buffer, 365 nM systemin or 365 nM CAPE1 in buffer through the cut stem for 2 and 4 hours (Schaller et al., 1995; Howe et al., 1996).
# After peptide treatment, the metabolites were extracted from leaf tissues for phytohormone quantitation. The extraction procedure was modified from a previously published protocol (Pan et al., 2010). The leaf tissues (about 0.6 g fresh weight) were ground into powder under liquid nitrogen and transferred to a 50 ml screw-cap tube. The frozen leaf powder was dissolved in 6 ml extraction solvent and d6-SA (3 ng to 0.6 g leaf tissue) and H2JA (15 ng to 0.6 g leaf tissue) were added as internal standards. The samples were extracted by shaking at a speed of 100 rpm at 4° C. for 30 minutes and then 12 ml dichloromethane was added to each sample and shaken at 100 rpm at 4° C. for 30 minutes. The samples were centrifuged at 13,000×g at 4° C. for 5 minutes, and two phases were formed. […]
# [3] = tested on: PR-1b and WRKY53 gene expression; experiment: qRT-PCR of defense genes in tomato leaves pretreated with cleavage motif peptide and challenged with Pst DC3000 hrcC-; assay type: in vivo; conditions: 1 μM CNYDPV pretreatment for 2 h, then Pst DC3000 hrcC- challenge for 2 h
# Method: Relative expression levels of PR-1b and WRKY53 were analyzed by qRT-PCR 2 h after challenge of 10^7 cfu/mL Pst DC3000 hrcC^− or buffer in tomato leaves, which was pretreated with water, 100 nM CAPE1 or 1 μM CNYDPV for 2 h, respectively.
# Quantitative real-time PCR (qRT-PCR) was used to validate the expression of some specific genes. Three biological replicates were used for qRT-PCR analyses. The qRT-PCR was performed using SYBR Green reagent and ABI 7500 Real Time PCR systems (Foster City, Calif.). The PCR cycling steps were 50° C. for 2 min and 94° C. for 10 min for initial steps and followed by 95° C. for 15 s and 60° C. for 1 min for 40 cycles. The gene expressions across different samples were normalized with internal control EF-1α or Ubi3. The melting curve was used to verify the specificity of the PCR product.
# Pst DC3000 [4] = experiment: Pathogen challenge of presprayed Arabidopsis plants; assay type: in vivo, Pseudomonas syringae pv. tomato; conditions: plants sprayed with 100 nM peptide for 2 hours prior to inoculation
# Method: The infection symptoms were observed 4 days after inoculation. The bacterial numbers were calculated 4 days after inoculation and are represented as log colony-forming units (Log CFU) per g leaf tissue. Data represent the means and SD of three biological samples.
# To test the anti-pathogen activity induced by peptides in Arabidopsis, the plants were sprayed with 100 nM AtCAPE1, AtCAPE9, 100 nM flg22 or water, respectively, for 2 hours prior to pathogen challenge.
# The bacterial pathogen Pseudomonas syringae pv. tomato DC3000 (Pst DC3000) or Pst DC3000 hrcC^− were grown on King's B (KB) agar medium containing 100 mg/L rifampicin for 2 days at 28° C. Before the challenge, the bacteria were cultured in KB liquid medium at 28° C. with 230 rpm shaking overnight. The bacteria were pelleted by centrifugation and resuspended in 10 mM MgSO4 at A600=0.25 (about 10^8 cfu/ml).
# [5] = tested on: Pseudomonas syringae pv. tomato DC3000 (Pst DC3000); assay type: in vivo
# Method: (a) Changes of the larval sizes after feeding with water or 250 nM CAPE1 treated tomato leaves. The larval weights of thirty larvae were recorded each day. (b) The Pst DC3000 infection phenotypes of the plants presprayed with water or 100 nM CAPE1 peptide for 2 hours (n=3) prior to pathogen inoculation. […] All statistically significant differences between the CAPE1- and water-treated samples are indicated with * (P<0.05) or *** (P<0.001) based on Student's t-test.
# (§1) (a) The level of SA induced by CAPE1 and flg22. The excised plants were pretreated with 10 mM phosphate buffer (buffer) or 365 nM CAPE1 or 365 nM flg22 in buffer through the cut stem for 8 hours (n=3). The quantity of SA was quantified by LC-SRM-MS and calculated based on the abundance of spiked SA isotopic standard (d6-SA). (b) The relative expression of WRKY53 and PR-1b were quantified by comparing the expression levels in untreated detached leaves with the detached leaves treated with water, 250 nM CAPE1 or 250 nM flg22 for 2 hours (n=4). The internal control Ubi3 was used for normalization. (c) The Pst DC3000 infection phenotypes for plants presprayed with water, 100 nM CAPE1 or 100 nM flg22 peptide for 2 hours (n=3) prior to the pathogen inoculation. The infection symptoms were observed 4 days after inoculation. […]
# SA accumulation = experiment: Salicylic acid quantitation by LC-MS/MS in excised tomato plants; assay type: in vivo, Solanum lycopersicum (tomato); conditions: 365 nM peptide supplied to excised plants through cut stem, 8 hours
# Method: as §1, with “normalization.” for “normalization. (c) The Pst DC3000 infection phenotypes for plants presprayed with water, 100 nM CAPE1 or 100 nM flg22 peptide for 2 hours (n=3) prior to the pathogen inoculation. The infection symptoms were observed 4 days after inoculation.”
# After peptide treatment, the metabolites were extracted from leaf tissues for phytohormone quantitation. […] The dried samples were dissolved in 300 μl methanol, mixed well and centrifuged at 10,000×g at 4° C. for 5 minutes and then the supernatant was transferred to the sample vial for targeted quantitation analysis using LC-MS/MS.
# For phytohormone quantitation, a linear ion trap-orbitrap mass spectrometer (Orbitrap Elite, Thermo Fisher Scientific, Bremen, Germany) coupled online with a UHPLC system (ACQUITY UPLC, Waters, Millford, Mass.) was used. […] The fragmentation reactions of m/z 137.02 to 93.03 for SA, 209.12 to 59.01 for JA, 322.20 to 130.09 for JA-Ile, 141.05 to 97.06 for d6-SA and 211.13 to 59.01 for H2JA were selected for quantitation. […]
# [6] = tested on: WRKY53, PR-1b, Adi3 and ERF5 gene expression; conditions: 30 minute or 6 hours treatment of flg22 on tomato; cited from earlier work
# [7] = tested on: WRKY53 and PR-1b gene expression; experiment: qRT-PCR of WRKY53 and PR-1b in detached tomato leaves; assay type: in vivo, Solanum lycopersicum (tomato); conditions: 250 nM peptide, 2 hours
# Method: (a) The level of SA induced by CAPE1 and flg22. The excised plants were pretreated with 10 mM phosphate buffer (buffer) or 365 nM CAPE1 or 365 nM flg22 in buffer through the cut stem for 8 hours (n=3). The quantity of SA was quantified by LC-SRM-MS and calculated based on the abundance of spiked SA isotopic standard (d6-SA). (b) The relative expression of WRKY53 and PR-1b were quantified by comparing the expression levels in untreated detached leaves with the detached leaves treated with water, 250 nM CAPE1 or 250 nM flg22 for 2 hours (n=4). The internal control Ubi3 was used for normalization. (c) The Pst DC3000 infection phenotypes for plants presprayed with water, 100 nM CAPE1 or 100 nM flg22 peptide for 2 hours (n=3) prior to the pathogen inoculation. The infection symptoms were observed 4 days after inoculation. […] A statistically significant difference compared with the correspondingly treated water (or buffer) samples is indicated with ** (P<0.01) or *** (P<0.001) based on Student's t-test.
# Quantitative real-time PCR (qRT-PCR) was used to validate the expression of some specific genes. Three biological replicates were used for qRT-PCR analyses. The qRT-PCR was performed using SYBR Green reagent and ABI 7500 Real Time PCR systems (Foster City, Calif.). […]
molecule,measurement,setting,value
"[Cl-].[Na+] [salt, NaCl]",anti-pathogen activity in Arabidopsis after salt treatment,Pst DC3000 [1],enhance the anti-pathogen activity
AVQSKPPSKRDPPKMQTD [systemin],induction of JA and JA-Ile,[2],significantly induced by treatment for 2 hours
CNYDPV,defense gene expression (PR-1b and WRKY53) in tomato,[3],decreased
PAGNYIGARPY (listed as Arabidopsis thaliana) [AtCAPE1],immunity against Pst DC3000 infection in Arabidopsis,Pst DC3000 [4],increase immunity against Pst DC3000 infection
PRGNYVNEKPY (listed as Arabidopsis thaliana) [AtCAPE9],immunity against Pst DC3000 infection in Arabidopsis,Pst DC3000 [4],increase immunity against Pst DC3000 infection
"PVGNWIGQRPY [CAPE1, PVGNWIGQRPY]",induction of the hypersensitive response (HR),[5]; in vivo,without induction of the HR
QRLSTGSRINSAKDDAAGLQIA [flg22],induction of SA,SA accumulation,significantly induced SA
same,"PR-1b, Adi3 and ERF5 induction (public RNA-seq data)",[6],could not be significantly induced
same,WRKY53 induction (public RNA-seq data),[6],could be induced
same,WRKY53 expression,[7],highly induced
same,plant resistance to Pst DC3000 infection in tomato,[5]; plants sprayed with 100 nM peptide for 2 hours prior to inoculation,resulted in plant resistance to Pst DC3000 infection
